Experiments:
Experiment in all cases: selective drug sensitivity score (sDSS, relative to normal bone marrow) (sDSS (score)); higher = more potent and effective on the cell line relative to normal bone marrow cells
Conditions in all cases: 72 h
KASUMI-2 = tested on: KASUMI-2
P30-OHKUBO = tested on: P30-OHKUBO
MN-60 = tested on: MN-60
NALM-6 = tested on: NALM-6
HAL-01 = tested on: HAL-01
JURKAT = tested on: JURKAT
P12-ICHIKAWA = tested on: P12-ICHIKAWA
HPB-ALL = tested on: HPB-ALL
COG-LL-332h = tested on: COG-LL-332h
COG-LL-319h = tested on: COG-LL-319h
PEER = tested on: PEER
COG-LL-394h = tested on: COG-LL-394h
ALL-PO = tested on: ALL-PO
DND-41 = tested on: DND-41
MHH-CALL-4 = tested on: MHH-CALL-4
COG-LL-402h = tested on: COG-LL-402h
REH = tested on: REH
KOPN-8 = tested on: KOPN-8
NALL-1 = tested on: NALL-1
TMD5 = tested on: TMD5
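Further: ALL cell lines in 384-well plates, five doses spanning 10,000-fold, each plate scaled between vehicle and 100 µmol/L benzalkonium chloride controls, sDSS an adapted area-under-curve metric.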

Row | SMILES | selective drug sensitivity score (KASUMI-2) | selective drug sensitivity score (P30-OHKUBO) | selective drug sensitivity score (MN-60) | selective drug sensitivity score (NALM-6) | selective drug sensitivity score (HAL-01) | selective drug sensitivity score (JURKAT) | selective drug sensitivity score (P12-ICHIKAWA) | selective drug sensitivity score (HPB-ALL) | selective drug sensitivity score (COG-LL-332h) | selective drug sensitivity score (COG-LL-319h) | selective drug sensitivity score (PEER) | selective drug sensitivity score (COG-LL-394h) | selective drug sensitivity score (ALL-PO) | selective drug sensitivity score (DND-41) | selective drug sensitivity score (MHH-CALL-4) | selective drug sensitivity score (COG-LL-402h) | selective drug sensitivity score (REH) | selective drug sensitivity score (KOPN-8) | selective drug sensitivity score (NALL-1) | selective drug sensitivity score (TMD5)
1 | Cc1nc(=O)c2cc(CN(C)c3ccc(C(=O)N[C@@H](CCC(=O)O)C(=O)O)s3)ccc2[nH]1 [Raltitrexed] (top concentration 1000 nM) | 15.8 | 25.3 | 8.02 | 23 | 21.2 | 14.6 | 20.4 | 13.4 | 18.3 | 25.7 | 13 | 2.12 | 23 | 16.5 | 16.1 | 8.22 | 24.3 | 28.4 | 12.8 | -0.68
2 | Cc1ccc(NS(=O)(=O)c2cccc(C#N)c2)c2[nH]cc(C#N)c12 [E7820] (top concentration 50000 nM) | 5.82 | 17.3 | -1.88 | 19.2 | 12.3 | 21.7 | 15.4 | 11 | 22.1 | 18 | 17.8 | -1.58 | 4.92 | 9.82 | 7.62 | 17.2 | 13.7 | 19.8 | 6.42 | 7.32
3 | Cc1cc(Nc2nc(N[C@@H](C)c3ncc(F)cn3)ncc2Cl)[nH]n1 [AZD1480] (top concentration 1000 nM) | -4.28 | -4.18 | -4.28 | -3.58 | -0.98 | -3.68 | -4.28 | -3.48 | -3.08 | -1.68 | -3.48 | -4.18 | 0.72 | 0.72 | -0.78 | -3.98 | -4.08 | -4.28 | -1.48 | -1.98
4 | O=C(O)CC[C@H]1CC[C@@](c2cc(F)ccc2F)(S(=O)(=O)c2ccc(Cl)cc2)CC1 [MK-0752] (top concentration 1000 nM) | 0 | 2.5 | 0 | 0 | 3.5 | 0 | 0 | 0 | 0 | 0 | 0 | 0 | 0 | 0.4 | 0 | 0 | 0 | 0 | 8.6 | 0
5 | COc1cc(C(=O)O)ccc1NC(=O)[C@@H]1N[C@@H](CC(C)(C)C)[C@](C#N)(c2ccc(Cl)cc2F)[C@H]1c1cccc(Cl)c1F [Idasanutlin] (top concentration 10000 nM) | 18.2 | 20.8 | 0.46 | 5.66 | 19.1 | -7.74 | -11.5 | -8.54 | 14.5 | 17 | -9.04 | 4.96 | -12.5 | -11 | 12.3 | 15.4 | 8.16 | 25.7 | -8.44 | 12.6
6 | CC(C)N(CCCNC(=O)Nc1ccc(C(C)(C)C)cc1)C[C@H]1O[C@@H](n2cc(Br)c3c(N)ncnc32)[C@H](O)[C@@H]1O [SGC0946] (top concentration 10000 nM) | -1.12 | 2.58 | -0.72 | -0.82 | 0.68 | -0.42 | 0.08 | 1.18 | 0.18 | -1.12 | 0.88 | -0.82 | 1.58 | -1.02 | -1.12 | -0.62 | 5.18 | -0.72 | 5.58 | 3.98
7 | C=CC(=O)Nc1cccc(Oc2nc(Nc3ccc(N4CCN(C)CC4)cc3)nc3ccsc23)c1 [Olmutinib] (top concentration 1000 nM) | -0.02 | 1.38 | -0.02 | -0.02 | 5.78 | -0.02 | -0.02 | -0.02 | -0.02 | -0.02 | -0.02 | -0.02 | -0.02 | -0.02 | -0.02 | 1.28 | 2.28 | -0.02 | 5.88 | -0.02
8 | COc1cc2ncnc(Nc3ccc(F)c(Cl)c3)c2cc1OCCCN1CCOCC1 [Gefitinib] (top concentration 10000 nM) | -3.04 | -0.04 | 0.66 | -0.44 | -0.14 | -1.44 | 0.96 | -1.14 | 2.56 | 5.66 | 2.76 | 0.16 | 4.16 | 1.16 | -3.04 | 0.96 | 2.36 | 2.96 | 1.06 | -2.14
9 | CCC1=C[C@@H]2CN(C1)Cc1c([nH]c3ccccc13)[C@@](C(=O)OC)(c1cc3c(cc1OC)N(C)[C@H]1[C@@](O)(C(=O)OC)[C@H](OC(C)=O)[C@]4(CC)C=CCN5CC[C@]31[C@@H]54)C2 [Vinorelbine] (top concentration 10000 nM) | 17.8 | 21.5 | 1.68 | 14.9 | 1.38 | 23.5 | 15.9 | 14.6 | 20.5 | 12.2 | 19.8 | 9.58 | 17.5 | 11.8 | 8.98 | 22.2 | 26.6 | 25.8 | 16.1 | 13.4
10 | O=S(=O)(c1cccc2c(O)nccc12)N1CCCNCC1 [Hydroxyfasudil] (top concentration 19000 nM) | 0.08 | -0.52 | -0.92 | -0.92 | 1.38 | -0.92 | -0.92 | -0.92 | -0.82 | -0.72 | 0.08 | -0.92 | -0.92 | -0.92 | -0.12 | -0.92 | -0.62 | 0.78 | 2.58 | 5.68
11 | CCOc1ccn(-c2ccc(F)cc2)c(=O)c1C(=O)Nc1ccc(Oc2ccnc(N)c2Cl)c(F)c1 (top concentration 2500 nM) | 0 | 1.5 | 0 | 2 | 0.1 | 0 | 3 | 0 | 3.2 | 0 | 3.9 | 0.8 | 2.7 | 0 | 0 | 0 | 1.3 | 0 | 0 | 0
12 | CONC(=O)c1ccccc1Nc1cc(Nc2cc(C)nn2C(C)C)ncc1Cl (top concentration 1000 nM) | -0.94 | -0.94 | -0.94 | 0.56 | 2.96 | -0.94 | -0.94 | -0.94 | -0.94 | 9.66 | -0.94 | -0.94 | -0.14 | 0.56 | -0.94 | -0.94 | -0.94 | 3.86 | -0.94 | -0.94
13 | CC1(C)CCC(CN2CCN(c3ccc(C(=O)NS(=O)(=O)c4ccc(NCC5CCOCC5)c([N+](=O)[O-])c4)c(Oc4cnc5[nH]ccc5c4)c3)CC2)=C(c2ccc(Cl)cc2)C1 [Venetoclax] (top concentration 1000 nM) | 22.9 | 21 | -4.4 | 4.4 | 20.4 | -3.3 | -2.4 | -0.9 | -3.3 | 28.8 | -2.9 | 4.5 | 30.2 | 2.1 | 14.2 | 14.1 | 0.9 | 28.9 | 20.5 | 20.8
14 | CNC(=O)c1ccc(C)c(-n2c(C)cc(OCc3ccc(F)cc3F)c(Br)c2=O)c1 (top concentration 1000 nM) | 0 | 4.5 | 0 | 0.1 | 2.6 | 0.9 | 0 | 4.6 | 0 | 0 | 0 | 0 | 0 | 0 | 5 | 0 | 4 | 0.7 | 0.3 | 0
15 | CC[C@@H]1C(=O)OC[C@@H]1Cc1cncn1C [Pilocarpine] (top concentration 40000 nM) | -1.56 | -1.56 | -1.56 | -1.56 | -1.56 | -1.56 | -1.56 | 7.34 | -1.56 | -1.56 | -1.56 | -1.56 | -1.56 | 4.34 | -1.56 | -1.56 | -1.56 | -1.56 | 7.44 | -1.56
16 | COc1cc([C@@H]2c3cc4c(cc3[C@@H](O[C@@H]3O[C@@H]5CO[C@@H](C)O[C@H]5[C@H](O)[C@H]3O)[C@H]3COC(=O)[C@H]23)OCO4)cc(OC)c1O [Etoposide] (top concentration 10000 nM) | 20.9 | 16.3 | -0.86 | 14.1 | 5.14 | 14.2 | 18.9 | 7.74 | 22.7 | 23.2 | 6.84 | 7.04 | 5.44 | 11.3 | 10.2 | 21.4 | 20.3 | 24.9 | 14.9 | 5.24
17 | C[C@]1(O)C[C@@H](c2nc(-c3ccc4ccc(-c5ccccc5)nc4c3)c3c(N)nccn32)C1 [Linsitinib] (top concentration 10000 nM) | -0.28 | -0.68 | -3.18 | -3.18 | -1.78 | -3.18 | -3.18 | 2.22 | -2.78 | -1.78 | -0.98 | -0.68 | 3.92 | 4.82 | 0.22 | -3.18 | -3.18 | -0.38 | -0.08 | 1.62
18 | O=C(Nc1cc(Cl)cc2c1[nH]c1cnccc12)c1cccnc1 [PS-1145] (top concentration 25000 nM) | -0.46 | 1.94 | -0.46 | -0.46 | 2.14 | -0.36 | -0.46 | -0.46 | -0.46 | -0.46 | -0.46 | -0.46 | -0.36 | -0.46 | -0.46 | -0.46 | 1.94 | -0.46 | 9.14 | -0.46
